From US6054435A, “6-O-substituted macrolides having antibacterial activity” (priority 1999, dated 2000)
Values after ≈ are worked out from the molar mass of the structure shown.

What was measured:
Experiment in all cases: in vitro antibacterial activity (MIC), agar dilution
Type in all cases: cell-based
[1] = test system: Staphylococcus aureus NCTC10649M; conditions: organism code EE; BHI agar, 35-37° C., 20 to 24 hours; unit assumed
Outline: (§1)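 Agar dilution in BHI agar, twelve successive compound dilutions. Inoculum 1:100, or 1:10 for slow-growing strains (e.g. Streptococcus), replicator-spotted. Read by eye; MIC = lowest concentration with no growth, slight haze or sparsely isolated colonies relative to growth control.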

[2] = test system: Haemophilis Influenzae DILL AMP R; conditions: organism code WW; BHI agar, 35-37° C., 20 to 24 hours; unit assumed
Outline: as §1

Escherichia coli SS = conditions: organism code RR; BHI agar, 35-37° C., 20 to 24 hours; unit assumed
Outline: as §1

[3] = test system: Staphylococcus aureus A-5278; conditions: organism code CC; BHI agar, 35-37° C., 20 to 24 hours; unit assumed
Outline: as §1

Candida albicans CCH 442 = conditions: organism code TT; BHI agar, 35-37° C., 20 to 24 hours; unit assumed
Outline: as §1

[4] = test system: Micrococcus luteus ATCC 4698; conditions: organism code PP; BHI agar, 35-37° C., 20 to 24 hours; unit assumed
Outline: (§2)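 Plates of BHI agar were prepared with twelve aqueous dilutions of compound, then inoculated at 1:100 dilution, or 1:10 for slow growers like Streptococcus. After incubation they were inspected, and the lowest concentration yielding no growth, slight haze or sparse colonies was recorded as MIC.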

[5] = test system: Staphylococcus epidermidis 3519; conditions: organism code HH; BHI agar, 35-37° C., 20 to 24 hours; unit assumed
Outline: as §1

[6] = test system: Streptococcus Pneumonia GYR 1171; conditions: organism code YY; BHI agar, 35-37° C., 20 to 24 hours; unit assumed
Outline: as §1

Escherichia coli JUHL = conditions: organism code QQ; BHI agar, 35-37° C., 20 to 24 hours; unit assumed
Outline: as §1

[7] = test system: Staphylococcus aureus 1775; conditions: organism code GG; BHI agar, 35-37° C., 20 to 24 hours; unit assumed
Outline: as §1

[8] = test system: Streptococcus pyogenes PIU 2548; conditions: organism code NN; BHI agar, 35-37° C., 20 to 24 hours; unit assumed
Outline: as §1

[9] = test system: Streptococcus pyogenes 930; conditions: organism code MM; BHI agar, 35-37° C., 20 to 24 hours; unit assumed
Outline: as §1

[10] = test system: Staphylococcus aureus ATCC 6538P; conditions: organism code AA; BHI agar, 35-37° C., 20 to 24 hours; unit assumed
Outline: as §1

[11] = test system: Streptococcus pyogenes EES61; conditions: organism code LL; BHI agar, 35-37° C., 20 to 24 hours; unit assumed
Outline: as §1

[12] = test system: Streptococcus bovis A-5169; conditions: organism code JJ; BHI agar, 35-37° C., 20 to 24 hours; unit assumed
Outline: as §1

[13] = test system: Streptococcus agalactiae CMX 508; conditions: organism code KK; BHI agar, 35-37° C., 20 to 24 hours; unit assumed
Outline: as §1

[14] = test system: Staphylococcus aureus A5177; conditions: organism code BB; BHI agar, 35-37° C., 20 to 24 hours; unit assumed
Outline: as §1

[15] = test system: Streptococcus Pneumonia ATCC6303; conditions: organism code XX; BHI agar, 35-37° C., 20 to 24 hours; unit assumed
Outline: as §1

[16] = test system: Micrococcus luteus ATCC 9341; conditions: organism code OO; BHI agar, 35-37° C., 20 to 24 hours; unit assumed
Outline: as §2

[17] = test system: Staphylococcus aureus CMX 642A; conditions: organism code DD; BHI agar, 35-37° C., 20 to 24 hours; unit assumed
Outline: as §1

[18] = test system: Mycobacterium smegmatis ATCC 114; conditions: organism code UU; BHI agar, 35-37° C., 20 to 24 hours; unit assumed
Outline: as §1

[19] = test system: Staphylococcus aureus CMX 553; conditions: organism code FF; BHI agar, 35-37° C., 20 to 24 hours; unit assumed
Outline: as §1

Escherichia coli DC-2 = conditions: organism code SS; BHI agar, 35-37° C., 20 to 24 hours; unit assumed
Outline: as §1

[20] = test system: Streptococcus Pneumonia 5979; conditions: organism code ZZ; BHI agar, 35-37° C., 20 to 24 hours; unit assumed
Outline: as §1

[21] = test system: Nocardia Asteroides ATCC9970; conditions: organism code VV; BHI agar, 35-37° C., 20 to 24 hours; unit assumed
Outline: as §1

[22] = test system: Streptococcus Pneumonia 5649; conditions: organism code ZZA; BHI agar, 35-37° C., 20 to 24 hours; unit assumed
Outline: as §1

[23] = test system: Enterococcus faecium ATCC 8043; conditions: organism code II; BHI agar, 35-37° C., 20 to 24 hours; unit assumed
Outline: as §1

Compound	MIC [1] [µg/mL]	MIC [2] [µg/mL]	MIC (Escherichia coli SS) [µg/mL]	MIC [3] [µg/mL]	MIC (Candida albicans CCH 442) [µg/mL]	MIC [4] [µg/mL]	MIC [5] [µg/mL]	MIC [6] [µg/mL]	MIC (Escherichia coli JUHL) [µg/mL]	MIC [7] [µg/mL]	MIC [8] [µg/mL]	MIC [9] [µg/mL]	MIC [10] [µg/mL]	MIC [11] [µg/mL]	MIC [12] [µg/mL]	MIC [13] [µg/mL]	MIC [14] [µg/mL]	MIC [15] [µg/mL]	MIC [16] [µg/mL]	MIC [17] [µg/mL]	further results
CC[C@H]1OC(=O)[C@H](C)C(=O)[C@H](C)[C@@H](O[C@@H]2O[C@H](C)C[C@H](N(C)C)[C@H]2O)[C@](C)(OC/C=C/c2ccc(-c3ncccn3)s2)C[C@@H](C)C(=O)[C@H](C)[C@H]2NC(=O)O[C@@]21C [Example 61]	0.1 (≈ 0.125 µM)	8 (≈ 10 µM)	0.39 (≈ 0.488 µM)	> 100	> 100	0.05 (≈ 0.0626 µM)	0.1 (≈ 0.125 µM)	0.015 (≈ 0.0188 µM)	25 (≈ 31.3 µM)	> 100	0.1 (≈ 0.125 µM)	50 (≈ 62.6 µM)	0.05 (≈ 0.0626 µM)	0.01 (≈ 0.0125 µM)	0.01 (≈ 0.0125 µM)	0.01 (≈ 0.0125 µM)	0.1 (≈ 0.125 µM)	0.015 (≈ 0.0188 µM)	0.01 (≈ 0.0125 µM)	0.1 (≈ 0.125 µM)	MIC [18]: 0.39 µg/mL (≈ 0.488 µM); MIC [19]: 0.1 µg/mL (≈ 0.125 µM); MIC (Escherichia coli DC-2): 50 µg/mL (≈ 62.6 µM); MIC [20]: 8 µg/mL (≈ 10 µM); MIC [21]: 0.05 µg/mL (≈ 0.0626 µM); MIC [22]: 0.25 µg/mL (≈ 0.313 µM); MIC [23]: 0.05 µg/mL (≈ 0.0626 µM)
CC[C@H]1OC(=O)[C@H](C)C(=O)[C@H](C)[C@@H](O[C@@H]2O[C@H](C)C[C@H](N(C)C)[C@H]2O)[C@](C)(OC/C=C/c2ccc(-c3ccc(Cl)c(Cl)c3)s2)C[C@@H](C)C(=O)[C@H](C)[C@H]2NC(=O)O[C@@]21C [Example 71]	0.39 (≈ 0.45 µM)	16 (≈ 18.5 µM)	3.1 (≈ 3.58 µM)	12.5 (≈ 14.4 µM)	> 100	0.39 (≈ 0.45 µM)	0.39 (≈ 0.45 µM)	0.125 (≈ 0.144 µM)	> 100	12.5 (≈ 14.4 µM)	0.39 (≈ 0.45 µM)	3.1 (≈ 3.58 µM)	0.39 (≈ 0.45 µM)	0.1 (≈ 0.115 µM)	0.05 (≈ 0.0577 µM)	0.1 (≈ 0.115 µM)	0.39 (≈ 0.45 µM)	0.125 (≈ 0.144 µM)	0.39 (≈ 0.45 µM)	0.39 (≈ 0.45 µM)	MIC [18]: 0.39 µg/mL (≈ 0.45 µM); MIC [19]: 0.39 µg/mL (≈ 0.45 µM); MIC (Escherichia coli DC-2): > 100 µg/mL; MIC [20]: 4 µg/mL (≈ 4.62 µM); MIC [21]: 0.39 µg/mL (≈ 0.45 µM); MIC [22]: 1 µg/mL (≈ 1.15 µM); MIC [23]: 0.39 µg/mL (≈ 0.45 µM)
CC[C@H]1OC(=O)[C@H](C)C(=O)[C@H](C)[C@@H](O[C@@H]2O[C@H](C)C[C@H](N(C)C)[C@H]2O)[C@](C)(OCC#Cc2ccc(-c3cncc(C#N)c3)s2)C[C@@H](C)C(=O)[C@H](C)[C@H]2NC(=O)O[C@@]21C [Example 8]	0.02 (≈ 0.0244 µM)	4 (≈ 4.87 µM)	0.2 (≈ 0.244 µM)	> 100	> 100	0.05 (≈ 0.0609 µM)	0.05 (≈ 0.0609 µM)	≤ 0.004	50 (≈ 60.9 µM)	> 100	0.1 (≈ 0.122 µM)	0.2 (≈ 0.244 µM)	0.05 (≈ 0.0609 µM)	≤ 0.005	≤ 0.005	0.01 (≈ 0.0122 µM)	0.05 (≈ 0.0609 µM)	≤ 0.004	≤ 0.005	0.05 (≈ 0.0609 µM)	MIC [18]: 0.78 µg/mL (≈ 0.95 µM); MIC [19]: 0.02 µg/mL (≈ 0.0244 µM); MIC (Escherichia coli DC-2): > 100 µg/mL; MIC [20]: 0.25 µg/mL (≈ 0.305 µM); MIC [21]: 0.01 µg/mL (≈ 0.0122 µM); MIC [22]: ≤ 0.004 µg/mL; MIC [23]: 0.02 µg/mL (≈ 0.0244 µM)
CC[C@H]1OC(=O)[C@H](C)C(=O)[C@H](C)[C@@H](O[C@@H]2O[C@H](C)C[C@H](N(C)C)[C@H]2O)[C@](C)(OCC#Cc2ccc(-c3cccs3)s2)C[C@@H](C)C(=O)[C@H](C)[C@H]2NC(=O)O[C@@]21C [Example 25]	0.2 (≈ 0.25 µM)	2 (≈ 2.5 µM)	0.2 (≈ 0.25 µM)	25 (≈ 31.2 µM)	12.5 (≈ 15.6 µM)	0.2 (≈ 0.25 µM)	0.1 (≈ 0.125 µM)	≤ 0.004	100 (≈ 125 µM)	25 (≈ 31.2 µM)	0.2 (≈ 0.25 µM)	1.56 (≈ 1.95 µM)	0.2 (≈ 0.25 µM)	0.005 (≈ 0.00624 µM)	0.1 (≈ 0.125 µM)	0.1 (≈ 0.125 µM)	0.1 (≈ 0.125 µM)	≤ 0.004	0.05 (≈ 0.0624 µM)	0.2 (≈ 0.25 µM)	MIC [18]: 0.39 µg/mL (≈ 0.487 µM); MIC [19]: 0.1 µg/mL (≈ 0.125 µM); MIC (Escherichia coli DC-2): > 100 µg/mL; MIC [20]: 0.25 µg/mL (≈ 0.312 µM); MIC [21]: 0.39 µg/mL (≈ 0.487 µM); MIC [22]: 0.125 µg/mL (≈ 0.156 µM); MIC [23]: 0.1 µg/mL (≈ 0.125 µM)
